From patent publication US12516388B2, “Biosensors for polyketide extender units and uses thereof” (NORTH CAROLINA STATE UNIVERSITY, priority 2019, dated 2026)

Key:
FapR [1] = target: T1, FapR (Bacillus subtilis, UniProt O34835); conditions: previously reported; cited from earlier work
Target sequence in this assay (O34835 whole entry): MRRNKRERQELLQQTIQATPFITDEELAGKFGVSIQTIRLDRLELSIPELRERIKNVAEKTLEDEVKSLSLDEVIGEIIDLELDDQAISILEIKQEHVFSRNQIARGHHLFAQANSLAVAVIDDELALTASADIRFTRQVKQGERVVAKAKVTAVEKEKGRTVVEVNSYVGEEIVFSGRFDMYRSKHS

FapR [2] = target: T1, FapR; test: Cell-free transcription-translation (TX-TL) FapR/T7-fapO-sfGFP assay; assay type: biochemical, B. subtilis; design: made in house; host or cells: E. coli BL21(DE3); conditions: for effector of FapR as judged by cell-free fluorescence / fluorescence response (de-repression of FapR/T7-fapO-sfGFP) compared among thioesters: each thioester at fixed concentration (150 μM)
Text: To this end, the reporter module of the FapR 2H8 biosensor was cloned into pET28a, replacing the typical lacO site controlling the T7 promoter with a single fapO binding site upstream of the sfGFP gene, producing pET28a-T7-fapO-sfGFP (FIG. 5C). Each α-carboxyacyl-CoA was generated enzymatically from the corresponding malonic acid and CoA using the wild-type malonyl-CoA synthetase MatB or the engineered MatB variant, T207G/M306I. Next, the response of the cell-free TX-TL biosensor assay was evaluated by using various concentrations of MatB-generated native effector, mCoA, along with a fixed amount of purified FapR and T7-fapO-sfGFP. […] In addition, the maximum fluorescence signal was ˜15-fold greater than that in the absence of mCoA. Furthermore, to account for potential inhibition of the cell-free biosensor by the MatB reaction mixture, the FapR system was also assayed using a commercial standard of mCoA.
Dose-response analysis of the cell-free TX-TL FapR assay. A premixed solution for cell-free transcription-translation reactions was purchased from New England Biolabs (PURExpress In Vitro Protein Synthesis Kit). To a PCR tube on ice were added (in the order shown): 4 μL Solution A, 3 μL Solution B, 2.5 μM FapR, 250 nM T7-fapO-sfGFP and 0-150 μM of MatB-generated or commercial mCoA in a total volume of 10 μL. In parallel, control reactions in the absence of thioester were assembled by using boiled MatB in the presence of malonic acid. The reaction was incubated for 16 h at 37° C. and then diluted with PBS buffer to give a final total volume of 50 μL.
Cell-Free Characterization of FapR Promiscuity. A commercial kit for cell-free transcription-translation reactions was purchased from New England Biolabs (PURExpress In Vitro Protein Synthesis Kit). To a PCR tube on ice were added (in the order shown): 4 μL Solution A, 3 μL Solution B, 2.5 μM FapR, 250 nM T7-fapO-sfGFP and 150 μM of MatB-generated acyl-CoA or mmSNAC in a total volume of 10 μL (FIG. 9). In parallel, control reactions in the absence of thioester were assembled by using boiled MatB. The reaction was incubated for 16 h at 37° C. and then diluted with PBS buffer to give a final total volume of 50 μL.
Target sequence in this assay (O34835 other isoform, or with tags, fused parts or gaps): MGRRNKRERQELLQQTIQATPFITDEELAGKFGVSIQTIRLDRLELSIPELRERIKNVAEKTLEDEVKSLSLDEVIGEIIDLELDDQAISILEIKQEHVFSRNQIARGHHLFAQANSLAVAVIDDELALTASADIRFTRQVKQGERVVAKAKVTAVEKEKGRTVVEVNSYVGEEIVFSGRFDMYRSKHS

FapR-fapO complex = target: T2, FapR-fapO complex (Bacillus subtilis, UniProt O34835); test: Electrophoretic mobility shift assay of FapR and fapO; assay type: binding, B. subtilis; conditions: titrated against FapR, 40 bp fapO fragment; read-out: concentration at which half of the DNA would be bound
T2 construct: made in house; host or cells: E. coli BL21(DE3)
Protocol: Next, the cell-free FapR biosensor was assayed with each α-carboxyacyl-CoA at a fixed concentration (150 μM). […] This robust activity of pgmCoA is due in part to the increased rigidity of the alkyne side-chain or additional interactions of the alkynyl […] with the FapR ligand-binding site, with the […] side-chain of the nearby Phe99 (FIG. 5A). […] To provide further evidence that FapR is de-repressed by derivatives of mCoA, FapR was tested in vitro for DNA-binding and release by electrophoretic mobility shift assay (EMSA) in the presence of mCoA or mmCoA. Using purified wild-type FapR protein, EMSA was run with a 40 bp DNA fragment containing the fapO binding site (FIG. 7).
Electrophoretic mobility shift assay. The fapO oligonucleotides 5′-[…]-3′ (SEQ ID NO:30) and 5′-[…]-3′ (SEQ ID NO:31) were annealed per standard procedure. Briefly, the two oligos were added to a final concentration of 10 μM each in annealing buffer (19 mM Tris, pH 7.5, 50 mM NaCl, 1 mM EDTA) and heated to 95° C. for 2 minutes before cooling to 25° C. at a rate of −1° C. min^−1. […] Reactions were then analyzed by electrophoresis on a 6% PAGE gel at 220 V. The gel was stained with SYBR Green I and imaged on a Typhoon FLA 7000.

T2 sequence (O34835 other isoform, or with tags, fused parts or gaps): as above

| SMILES | effector status for FapR (FapR [1]) | effector of FapR as judged by cell-free fluorescence (FapR [2]; FIG. 5D) | fluorescence response (de-repression of FapR/T7-fapO-sfGFP) compared among thioesters (FapR [2]; FIG. 5D) | other results |
| --- | --- | --- | --- | --- |
| CC(=O)SCCNC(=O)CCNC(=O)[C@H](O)C(C)(C)COP(=O)(O)OP(=O)(O)OC[C@H]1O[C@@H](n2cnc3c(N)ncnc32)[C@H](O)[C@@H]1OP(=O)(O)O [acetyl-CoA] | non-effectors | – | – | – |
| CCCCC(C(=O)O)C(=O)SCCNC(=O)CCNC(=O)[C@H](O)C(C)(C)COP(=O)(O)OP(=O)(O)OC[C@H]1O[C@@H](n2cnc3c(N)ncnc32)[C@H](O)[C@@H]1OP(=O)(O)O (stereo partly drawn) [bmCoA, butylmalonyl-CoA] | – | identified as effectors | poorest effectors | – |
| CCCC(=O)SCCNC(=O)CCNC(=O)[C@H](O)C(C)(C)COP(=O)(O)OP(=O)(O)OC[C@H]1O[C@@H](n2cnc3c(N)ncnc32)[C@H](O)[C@@H]1OP(=O)(O)O [butyryl-CoA] | non-effectors | – | – | – |
| CCC(C(=O)O)C(=O)SCCNC(=O)CCNC(=O)[C@H](O)C(C)(C)COP(=O)(O)OP(=O)(O)OC[C@H]1O[C@@H](n2cnc3c(N)ncnc32)[C@H](O)[C@@H]1OP(=O)(O)O (stereo partly drawn) [emCoA, ethylmalonyl-CoA] | – | identified as effectors | poorest effectors | – |
| CC(C)(COP(=O)(O)OP(=O)(O)OC[C@H]1O[C@@H](n2cnc3c(N)ncnc32)[C@H](O)[C@@H]1OP(=O)(O)O)[C@@H](O)C(=O)NCCC(=O)NCCSC(=O)CC(=O)O [mCoA, malonyl-CoA] | – | – | – | EC50 (FapR-fapO complex): 200 µM; maximum fluorescence signal relative to absence of mCoA (FapR [2]; 0-150 μM mCoA): ~15 fold; concentration range with linear fluorescence output of the cell-free biosensor (FapR [2]; MatB-generated mCoA, 2.5 μM FapR, 250 nM T7-fapO-sfGFP): up to 150 μM; fluorescence output, MatB-generated versus commercial mCoA (FapR [2]; dose-response, FIG. 6): no significant difference |
| CC(C(=O)O)C(=O)SCCNC(=O)CCNC(=O)[C@H](O)C(C)(C)COP(=O)(O)OP(=O)(O)OC[C@H]1O[C@@H](n2cnc3c(N)ncnc32)[C@H](O)[C@@H]1OP(=O)(O)O (stereo partly drawn) [mmCoA, methylmalonyl-CoA] | – | – | statistically indistinguishable from that with the native ligand, mCoA | – |
| CC(=O)NCCSC(=O)C(C)C(=O)O (stereo not drawn) [mmSNAC] | – | determined to be an effector | – | de-repression activity relative to the corresponding CoA thioester (FapR [2]; 150 μM, fluorescence assay, FIG. 5D): ~50% |
| C#CCC(C(=O)O)C(=O)SCCNC(=O)CCNC(=O)[C@H](O)C(C)(C)COP(=O)(O)OP(=O)(O)OC[C@H]1O[C@@H](n2cnc3c(N)ncnc32)[C@H](O)[C@@H]1OP(=O)(O)O (stereo partly drawn) [pgmCoA, propargylmalonyl-CoA] | – | identified as effectors | indistinguishable from that of mCoA and mmCoA | – |
| CCC(=O)SCCNC(=O)CCNC(=O)[C@H](O)C(C)(C)COP(=O)(O)OP(=O)(O)OC[C@H]1O[C@@H](n2cnc3c(N)ncnc32)[C@H](O)[C@@H]1OP(=O)(O)O [propionyl-CoA] | non-effectors | de-repression was not observed | – | – |
| CC(C)(COP(=O)(O)OP(=O)(O)OC[C@H]1O[C@@H](n2cnc3c(N)ncnc32)[C@H](O)[C@@H]1OP(=O)(O)O)[C@@H](O)C(=O)NCCC(=O)NCCSC(=O)CCC(=O)O [succinyl-CoA] | non-effectors | – | – | – |
